# Reference: patent US20100189648A1, “INHIBITORS FOR DISRUPTING THE INTERACTION OF UBIQUITINATION RELATED ENZYMES AND USES THEREOF” (priority 2006, published 2010)
# Where “and” joins values, the source holds several entries; their conditions need not be identical. Identical values can stand only once. Like-named read-outs stand apart in the source and are kept apart here.
# Columns and labels:
# Type in all cases: cell-based, human
# SMMC-7721 = assay: MTT survival assay, liver cancer cell line (SMMC-7721); conditions: SMMC-7721 Experiment #2; for IC50: Homo sapiens
# Outline: (§1)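 After overnight attachment, cells in 10% FBS RPMI1640 or MEM were exposed to test articles for 68 hours at 37 C, in triplicate. Viability was read as MTT (1 mg/ml, 4 h) formazan absorbance at 570 nm after DMSO solubilization. Growth inhibition was taken relative to negative control, with IC50 at 95% confidence by Bliss method.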
# HCT116 = assay: MTT survival assay, colon cancer cell line (HCT116); conditions: for IC50: Homo sapiens
# Experimental: The effect of the above identified compounds on anti-tumor activity in human carcinoma cells was determined by the MTT survival assay. The MTT assay is a commonly used method in evaluation of cell survival, based on the ability of viable cells to convert MTT (MTT, Sigma, Cat No. 044K5307), a soluble tetrazolium salt [3-(4,5-dimethylthuazole-2-yl)-2,5 diphenyl tetrazolium bromide], into an insoluble formazan precipitate, which is quantitated by spectrophotometry following solubilization in dimethyl sulfoxide (DMSO).
# In brief, different carcinoma cells were treated with negative control, various test articles at different concentration, and positive control (DDP), in 96-well tissue culture dishes. Each test article at different concentration is repeated 3 times.
# Different carcinoma cells were diluted with 10% FBS and RPM1640 or MEM media to a concentration of 3-5×10^4 per ml suspension. 100 microliter of cells were incubated in each well in 96-well tissue culture dishes at 37 C. The cells were incubated at 37 C on the first day. On the second day, media supernatant was removed and replaced with media and different concentration of test articles (100 microliter in each well). Three Negative control wells and three positive control (DDP) wells were also included. The 96-well plate were incubated at 37 C for another 68 hours. After 68 hours, supernatant of each well was removed. 100 microliter of 1 mg/ml MTT diluted in PBS was injected into each well. The cells were incubated at 37 C for another 4 hours. The cells were then solubilized in 150 microliter DMSO, mixed for 10 minutes and absorbance readings were taken using Microplate reader Bio-Rad Model 550 at 570 nm. IR (cell growth inhibition rate) % was calculated as (OD570 of negative control-OD570 with test article)/OD570 of negative control. IC50 (cell 50% inhibition concentration) at 95% confidence level was calculated with Bliss method.
# MCF-7 = assay: MTT survival assay, breast cancer cell line (MCF-7); conditions: for IC50: Homo sapiens
# Outline: as §1
# SKOV3 = assay: MTT survival assay, ovarian cancer cell line (SKOV3); conditions: SKOV3 (second table)
# Outline: as §1
# U251 = assay: MTT survival assay, glioma cell line (brain tumor U251); conditions: U251 (second table)
# Outline: as §1
# A459 = assay: MTT survival assay, lung cancer cell line (A459); conditions: A459 Experiment #2; for IC50: Homo sapiens
# Outline: as §1
# Hela cells = assay: MTT survival assay, cervical cancer line (Hela cells); conditions: for IC50: Homo sapiens
# Outline: as §1
# [1] = 95% confidence limits of IC50, read-out: IC50 (95% confidence level), interval
# [2] = Bliss method, unit not printed (concentrations in μg/ml), read-out: IC50 (95% confidence level)
smiles,measurement,setting,value
O=C(CSc1cc(COc2ccc(Br)cc2)[nH]n1)c1ccccc1 [Mol 21],IC50,SMMC-7721; [1],9.32 to 9.71 µg/mL
same,IC50,SMMC-7721; [2],9.52 µg/mL
same,IR (%),SMMC-7721; 3.125 μg/ml,−49.9%
same,OD(A570 nm),SMMC-7721; 3.125 μg/ml,0.690 ± 0.603
same,IR (%),SMMC-7721; 6.25 μg/ml,65.1%
same,OD(A570 nm),SMMC-7721; 6.25 μg/ml,0.161 ± 0.085
same,IR (%),SMMC-7721; 12.5 μg/ml,68.3%
same,OD(A570 nm),SMMC-7721; 12.5 μg/ml,0.146 ± 0.041
same,IR (%),SMMC-7721; 25 μg/ml,72.0%
same,OD(A570 nm),SMMC-7721; 25 μg/ml,0.129 ± 0.006
same,IR (%),SMMC-7721; 50 μg/ml,82.9%
same,OD(A570 nm),SMMC-7721; 50 μg/ml,0.079 ± 0.005
same,IR (%),SMMC-7721; 100 μg/ml,83.2%
same,OD(A570 nm),SMMC-7721; 100 μg/ml,0.077 ± 0.009
same,IR (%),HCT116; 3.125 μg/ml,56.2% and 30.4%
same,OD(A570 nm),HCT116; 6.25 μg/ml,0.300 ± 0.050 and 0.394 ± 0.039
same,OD(A570 nm),HCT116; 12.5 μg/ml,0.150 ± 0.025 and 0.267 ± 0.035
same,IR (%),HCT116; 25 μg/ml,80.0% and 81.3%
same,OD(A570 nm),HCT116; 25 μg/ml,0.109 ± 0.006 and 0.101 ± 0.020
same,OD(A570 nm),HCT116; 50 μg/ml,0.083 ± 0.011 and 0.085 ± 0.004
same,IR (%),HCT116; 100 μg/ml,84.1% and 84.7%
same,OD(A570 nm),HCT116; 100 μg/ml,0.086 ± 0.012 and 0.083 ± 0.001
same,IC50,"HCT116; HCT-116, 95% confidence limits of IC50, read-out: IC50 (95% confidence level), interval",2.99 to 3.33 µg/mL
same,IC50,"HCT116; HCT-116, Bliss method, unit not printed (concentrations in μg/ml), read-out: IC50 (95% confidence level)",3.16 µg/mL
same,IR (%),MCF-7; 3.125 μg/ml,12.5%
same,OD(A570 nm),MCF-7; 3.125 μg/ml,0.789 ± 0.064
same,IR (%),MCF-7; 6.25 μg/ml,30.9%
same,OD(A570 nm),MCF-7; 6.25 μg/ml,0.624 ± 0.008
same,IR (%),MCF-7; 12.5 μg/ml,61.6%
same,OD(A570 nm),MCF-7; 12.5 μg/ml,0.346 ± 0.022
same,IR (%),MCF-7; 25 μg/ml,89.1%
same,OD(A570 nm),MCF-7; 25 μg/ml,0.098 ± 0.006
same,IR (%),MCF-7; 50 μg/ml,92.4%
same,OD(A570 nm),MCF-7; 50 μg/ml,0.069 ± 0.006
same,IR (%),MCF-7; 100 μg/ml,92.1%
same,OD(A570 nm),MCF-7; 100 μg/ml,0.072 ± 0.007
same,IC50,"MCF-7; MCF7, 95% confidence limits of IC50, read-out: IC50 (95% confidence level), interval",8.53 to 11.4 µg/mL
same,IC50,"MCF-7; MCF7, Bliss method, unit not printed (concentrations in μg/ml), read-out: IC50 (95% confidence level)",9.93 µg/mL
same,IC50,"SKOV3; Homo sapiens, SK-OV-3, Bliss method, unit not printed (concentrations in μg/ml), read-out: IC50 (95% confidence level)",17.7 µg/mL
same,IR (%),SKOV3; 3.125 μg/ml,28.2%
same,OD(A570 nm),SKOV3; 3.125 μg/ml,0.503 ± 0.031
same,IR (%),SKOV3; 6.25 μg/ml,24.1%
same,OD(A570 nm),SKOV3; 6.25 μg/ml,0.532 ± 0.025
same,IR (%),SKOV3; 12.5 μg/ml,34.3%
same,OD(A570 nm),SKOV3; 12.5 μg/ml,0.460 ± 0.195
same,IR (%),SKOV3; 25 μg/ml,38.8%
same,OD(A570 nm),SKOV3; 25 μg/ml,0.429 ± 0.002
same,IR (%),SKOV3; 50 μg/ml,83.0%
same,OD(A570 nm),SKOV3; 50 μg/ml,0.119 ± 0.010
same,IR (%),SKOV3; 100 μg/ml,89.1%
same,OD(A570 nm),SKOV3; 100 μg/ml,0.077 ± 0.011
same,IC50,"U251; Homo sapiens, U-251, Bliss method, unit not printed (concentrations in μg/ml), read-out: IC50 (95% confidence level)",16.2 µg/mL
same,IR (%),U251; 3.125 μg/ml,4.2%
same,OD(A570 nm),U251; 3.125 μg/ml,0.840 ± 0.013
same,IR (%),U251; 6.25 μg/ml,18.0%
same,OD(A570 nm),U251; 6.25 μg/ml,0.719 ± 0.110
same,IR (%),U251; 12.5 μg/ml,42.8%
same,OD(A570 nm),U251; 12.5 μg/ml,0.501 ± 0.058
same,IR (%),U251; 25 μg/ml,73.5%
same,OD(A570 nm),U251; 25 μg/ml,0.232 ± 0.034
same,IR (%),U251; 50 μg/ml,86.2%
same,OD(A570 nm),U251; 50 μg/ml,0.121 ± 0.019
same,IR (%),U251; 100 μg/ml,89.2%
same,OD(A570 nm),U251; 100 μg/ml,0.094 ± 0.007
same,IR (%),A459; 3.125 μg/ml,−0.7%
same,OD(A570 nm),A459; 3.125 μg/ml,0.642 ± 0.073
same,IR (%),A459; 6.25 μg/ml,−3.9%
same,OD(A570 nm),A459; 6.25 μg/ml,0.662 ± 0.031
same,IR (%),A459; 12.5 μg/ml,56.2%
same,OD(A570 nm),A459; 12.5 μg/ml,0.279 ± 0.014
same,IR (%),A459; 25 μg/ml,81.5%
same,OD(A570 nm),A459; 25 μg/ml,0.118 ± 0.027
same,IR (%),A459; 50 μg/ml,89.2%
same,OD(A570 nm),A459; 50 μg/ml,0.069 ± 0.010
same,IR (%),A459; 100 μg/ml,87.1%
same,OD(A570 nm),A459; 100 μg/ml,0.082 ± 0.015
same,IC50,A459; [1],6.3 to 7.13 µg/mL
same,IC50,A459; [2],6.72 µg/mL
same,IR (%),Hela cells; 0.41 μg/ml,10.0%
same,OD(A570 nm),Hela cells; 0.41 μg/ml,0.668 ± 0.049
same,OD(A570 nm),Hela cells; 1.23 μg/ml,0.785 ± 0.081
same,OD(A570 nm),Hela cells; 3.70 μg/ml,0.774 ± 0.066
same,IR (%),Hela cells; 11.11 μg/ml,35.4%
same,OD(A570 nm),Hela cells; 11.11 μg/ml,0.480 ± 0.035
same,IR (%),Hela cells; 33.33 μg/ml,73.8%
same,OD(A570 nm),Hela cells; 33.33 μg/ml,0.194 ± 0.031
same,IR (%),Hela cells; 100 μg/ml,82.5%
same,OD(A570 nm),Hela cells; 100 μg/ml,0.130 ± 0.039
same,IC50,Hela cells; [1],18.8 to 26.4 µg/mL
same,IC50,Hela cells; [2],22.2 µg/mL
